Experimental data as given in publication PMC9596378, “Discovery and molecular basis of subtype-selective cyclophilin inhibitors” (Nature Chemical Biology, 2022).
Values joined by “and” are separate entries in the source; they are usually repeats but may differ in a detail not shown here. Equal entries are not always repeated. Where two headings read alike, the source gives them in different places.

Key:
Assay in all cases: Chymotrypsin coupled prolyl-isomerase assay
[1] = target: T1, PPWD1 (Homo sapiens, UniProt Q96BP3); format: biochemical; conditions: for PPWD1 prolyl-isomerase assay raw dose-response value: Fig. 3b source data, replicates
T1 construct: PPWD1 (UniProtKB Entry Q96BP3: residues 473–646); host or cells: E. coli BL21(DE3)
T1 sequence (Q96BP3 473-646): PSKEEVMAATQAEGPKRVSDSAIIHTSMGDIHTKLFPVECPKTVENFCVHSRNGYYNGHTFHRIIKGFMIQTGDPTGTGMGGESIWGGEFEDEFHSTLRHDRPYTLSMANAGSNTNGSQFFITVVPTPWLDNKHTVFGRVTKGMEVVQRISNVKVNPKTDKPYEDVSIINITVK

[2] = target: T2, NKTR (Homo sapiens, UniProt P30414); format: biochemical; conditions: for NKTR prolyl-isomerase assay raw dose-response value: Fig. 3b source data, replicates; for IC50: wild-type NKTR, read-out: Wild-Type Cyclophilin Prolyl Isomerase Inhibition IC50 Values, NKTR
T2 construct: NKTR (UniProtKB Entry P30414: residues 7–179); host or cells: E. coli BL21(DE3)
T2 sequence (P30414 7-179): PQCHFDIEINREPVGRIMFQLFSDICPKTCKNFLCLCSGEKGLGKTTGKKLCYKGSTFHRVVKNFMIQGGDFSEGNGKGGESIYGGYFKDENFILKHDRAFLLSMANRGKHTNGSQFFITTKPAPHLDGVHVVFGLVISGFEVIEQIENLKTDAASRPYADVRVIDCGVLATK
Method: Adapting a previously described protocol[51], with an Agilent Bravo Velocity 11 with a 384ST head, 90 µL assay buffer (25 mM HEPES pH 7.3, 100 mM NaCl, 0.01% Triton X-100) containing 5.28 nM cyclophilin was added into a flat, clear-bottom, black 384-well plate pre-chilled in a Corning CoolBox at 2–3 °C. Five microliters of compound pre-dissolved in 5% DMSO/assay buffer was then added to appropriate wells and incubated at 2–3 °C for 5 min. Five microliters of 0.5 mM α-chymotrypsin from bovine pancreas (Type II, lyophilized powder, Millipore-Sigma) in 20% 1 mM HCl/Assay Buffer was then added to each well and incubated at 2–3 °C for 5 min. […] Using the internal liquid handling system of the FLIPR, 1 µL 0.5 mM Suc-AAPF-AMC (Chymotrypsin Substrate II, Millipore-Sigma) dissolved in 0.55 M LiCl/2,2,2-trifluoroethanol was added to each well, which was then mixed for 5 s, followed by immediate fluorescence measurements every 1 s for 330 s using a 360–380 nm excitation LED module and a 400–460 nm emission filter. Final concentrations of the plate include 5 nM cyclophilin, 0.25% DMSO, 25 µM α-chymotrypsin, 5 µM Suc-AAPF-AMC. Raw fluorescence data was analyzed by non-linear regression analysis with Prism v.9 by fitting one-phase association curves to each well. Analyses were halted after the calculated maximum fluorescent value owing to observed fluorescent bleaching during the sustained fluorescent plateau. Rate constants calculated for each well (s^−1) were then normalized to substrate only (no prolyl-isomerase) and enzyme + substrate only controls. IC50 values were calculated as the value at which 50% inhibition was achieved on the non-linear regression fitted curve of each compound.

[3] = target: T3, CypD R124A (Homo sapiens, UniProt P30405, R124A); format: biochemical
T3 construct: made in house; host or cells: E. coli BL21(DE3)
Procedure, shortened: (§1)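 Cyclophilin (5 nM final) in 25 mM HEPES pH 7.3, 100 mM NaCl, 0.01% Triton X-100 was preincubated with compound (0.25% DMSO) 5 min at 2–3 °C, then with 25 µM α-chymotrypsin 5 min. Suc-AAPF-AMC (5 µM, in LiCl/trifluoroethanol) started the reaction; AMC fluorescence read every 1 s for 330 s.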

[4] = target: T4, CypD K118E (Homo sapiens, UniProt P30405, K118E); format: biochemical; conditions: for IC50: prolyl-isomerase inhibition
T4 construct: made in house; host or cells: E. coli BL21(DE3)
Procedure, shortened: as §1

[5] = target: T5, CypD K118A (Homo sapiens, UniProt P30405, K118A); format: biochemical; conditions: prolyl-isomerase inhibition
T5 construct: made in house; host or cells: E. coli BL21(DE3)
Procedure, shortened: as §1

[6] = target: T6, CypD S123E (Homo sapiens, UniProt P30405, S123E); format: biochemical; conditions: prolyl-isomerase inhibition
T6 construct: made in house; host or cells: E. coli BL21(DE3)
Procedure, shortened: as §1

[7] = target: T7, CypD R124K (Homo sapiens, UniProt P30405, R124K); format: biochemical; conditions: mutant CypD R124K; read-out: Mutant Cyclophilin Prolyl Isomerase Inhibition IC50 Values, CypD R124K
T7 construct: made in house; host or cells: E. coli BL21(DE3)
Procedure, shortened: as §1

[8] = target: T8, CypA E81S/K82R (Homo sapiens, UniProt P62937, E81S/K82R); format: biochemical; conditions: mutant CypA E81S/K82R; read-out: Mutant Cyclophilin Prolyl Isomerase Inhibition IC50 Values, CypA E81S/K82R
T8 construct: Lane 12- SNA-CypA E81S/K82R (1-165);; His6 tag with TEV site (2BT vector); SNA remnant stays on the N-terminus (N, cleaved yes); made in house; host or cells: E. coli BL21(DE3)
Procedure, shortened: as §1

[9] = target: CypD (Homo sapiens, UniProt P30405); conditions: for CypD prolyl-isomerase assay raw dose-response value: Fig. 3b source data, replicates
[10] = target: Cyp40 (Homo sapiens, UniProt Q08752); conditions: for Cyp40 prolyl-isomerase assay raw dose-response value: Fig. 3b source data, replicates; for IC50: Wild-Type Cyclophilin Prolyl Isomerase Inhibition IC50 Values, Cyp40, wild-type Cyp40
Procedure, shortened: as §1

[11] = wild-type PPWD1, read-out: Wild-Type Cyclophilin Prolyl Isomerase Inhibition IC50 Values, PPWD1

T4 sequence (P30405 45-207 K118E): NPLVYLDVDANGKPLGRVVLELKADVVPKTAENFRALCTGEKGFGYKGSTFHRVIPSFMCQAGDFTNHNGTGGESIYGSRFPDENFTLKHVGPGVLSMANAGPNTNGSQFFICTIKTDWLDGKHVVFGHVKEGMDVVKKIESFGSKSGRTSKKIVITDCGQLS
CypD, sequence (P30405 45-207): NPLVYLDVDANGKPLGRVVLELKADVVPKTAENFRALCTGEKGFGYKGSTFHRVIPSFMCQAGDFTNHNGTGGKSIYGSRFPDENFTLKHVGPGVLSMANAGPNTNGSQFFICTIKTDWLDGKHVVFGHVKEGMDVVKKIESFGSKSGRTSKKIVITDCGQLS
Cyp40, sequence (Q08752 1-183): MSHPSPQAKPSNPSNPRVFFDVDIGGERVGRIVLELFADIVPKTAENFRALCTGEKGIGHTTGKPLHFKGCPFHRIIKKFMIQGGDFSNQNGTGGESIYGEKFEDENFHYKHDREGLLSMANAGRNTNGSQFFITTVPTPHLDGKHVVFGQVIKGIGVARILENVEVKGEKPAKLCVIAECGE
T3 sequence (P30405 45-207 R124A): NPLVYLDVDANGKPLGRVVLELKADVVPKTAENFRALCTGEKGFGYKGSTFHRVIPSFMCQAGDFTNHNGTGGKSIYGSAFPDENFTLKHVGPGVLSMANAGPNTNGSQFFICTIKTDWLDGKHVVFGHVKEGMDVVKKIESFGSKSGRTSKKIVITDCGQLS
T8 sequence (P62937 whole entry E81S/K82R): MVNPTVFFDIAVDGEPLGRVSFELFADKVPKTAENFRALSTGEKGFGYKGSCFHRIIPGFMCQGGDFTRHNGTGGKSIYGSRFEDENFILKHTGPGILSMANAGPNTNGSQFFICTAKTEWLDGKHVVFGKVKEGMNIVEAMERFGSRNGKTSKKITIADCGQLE
T6 sequence (P30405 45-207 S123E): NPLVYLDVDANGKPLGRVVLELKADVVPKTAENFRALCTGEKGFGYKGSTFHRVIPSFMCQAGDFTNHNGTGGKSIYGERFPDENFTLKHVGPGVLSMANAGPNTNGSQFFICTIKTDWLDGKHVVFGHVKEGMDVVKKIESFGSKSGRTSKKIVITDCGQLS
T7 sequence (P30405 45-207 R124K): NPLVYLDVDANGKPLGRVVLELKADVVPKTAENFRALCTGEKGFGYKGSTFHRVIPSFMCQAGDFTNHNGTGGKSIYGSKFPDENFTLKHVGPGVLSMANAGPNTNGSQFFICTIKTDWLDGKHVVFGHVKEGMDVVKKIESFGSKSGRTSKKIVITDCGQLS
T5 sequence (P30405 45-207 K118A): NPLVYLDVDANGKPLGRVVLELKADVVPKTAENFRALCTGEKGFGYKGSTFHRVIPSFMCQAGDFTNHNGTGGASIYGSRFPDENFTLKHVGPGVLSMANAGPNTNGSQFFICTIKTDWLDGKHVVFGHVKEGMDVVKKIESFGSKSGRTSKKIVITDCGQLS

NCCOCCNC(=O)[C@@H]1CCNC(=O)/C=C/C(=O)N2CCC[C@](Cc3ccccc3)(C2)C(=O)N[C@@H](Cc2ccc(-c3ccc(C#CC(=O)O)cc3)cc2)C(=O)NCc2ccccc2CC(=O)N1 [Compound B25]
PPWD1 prolyl-isomerase assay raw dose-response value ([1]; Dose 0.0228624 µM): 0.03895 and 0.0361 and 0.043
PPWD1 prolyl-isomerase assay raw dose-response value ([1]; Dose 0.0685871 µM): 0.04294 and 0.03257 and 0.04643
PPWD1 prolyl-isomerase assay raw dose-response value ([1]; Dose 0.205761 µM): 0.03704 and 0.0362
PPWD1 prolyl-isomerase assay raw dose-response value ([1]; Dose 0.617284 µM): 0.03731 (2×) and 0.0336
PPWD1 prolyl-isomerase assay raw dose-response value ([1]; Dose 1.85185 µM): 0.03718 and 0.0343 and 0.0411
PPWD1 prolyl-isomerase assay raw dose-response value ([1]; Dose 5.55556 µM): 0.03268 and 0.0311 and 0.02851
PPWD1 prolyl-isomerase assay raw dose-response value ([1]; Dose 16.6667 µM): 0.02501 and 0.02576 and 0.02254
PPWD1 prolyl-isomerase assay raw dose-response value ([1]; Dose 50 µM): 0.01888 and 0.01599 and 0.01588
IC50 ([1]; prolyl-isomerase inhibition, 5 nM cyclophilin, read-out: IC50 PPWD1): ~10 µM
IC50 [1, 11]: 10 µM
NKTR prolyl-isomerase assay raw dose-response value ([2]; Dose 0.0228624 µM): 0.03241 and 0.03231 and 0.03444
NKTR prolyl-isomerase assay raw dose-response value ([2]; Dose 0.0685871 µM): 0.03299 and 0.03067 and 0.03202
NKTR prolyl-isomerase assay raw dose-response value ([2]; Dose 0.205761 µM): 0.03236 and 0.03203
NKTR prolyl-isomerase assay raw dose-response value ([2]; Dose 0.617284 µM): 0.03089 and 0.03188 and 0.03316
NKTR prolyl-isomerase assay raw dose-response value ([2]; Dose 1.85185 µM): 0.03191 and 0.03168 and 0.03161
NKTR prolyl-isomerase assay raw dose-response value ([2]; Dose 5.55556 µM): 0.03134 and 0.03255 and 0.03129
NKTR prolyl-isomerase assay raw dose-response value ([2]; Dose 16.6667 µM): 0.03138 and 0.0295 and 0.03008
NKTR prolyl-isomerase assay raw dose-response value ([2]; Dose 50 µM): 0.02697 and 0.02369 and 0.02457
IC50 [2]: > 50 µM
IC50 ([3]; mutant CypD R124A, read-out: Mutant Cyclophilin Prolyl Isomerase Inhibition IC50 Values, CypD R124A): 0.002 µM
IC50 [4]: 0.06 µM
IC50 [5]: 0.019 µM
IC50 [6]: 0.008 µM
IC50 [7]: 0.0029 µM
IC50 [8]: 0.0062 µM
IC50 [9]: 0.003 µM
CypD prolyl-isomerase assay raw dose-response value ([9]; Dose 0.000457247 µM): 0.0674 and 0.06729 and 0.07005
CypD prolyl-isomerase assay raw dose-response value ([9]; Dose 0.00137174 µM): 0.06909 and 0.05826 and 0.0465
CypD prolyl-isomerase assay raw dose-response value ([9]; Dose 0.00411523 µM): 0.04183 and 0.04697 and 0.03133
CypD prolyl-isomerase assay raw dose-response value ([9]; Dose 0.0123457 µM): 0.02432 and 0.02391 and 0.02276
CypD prolyl-isomerase assay raw dose-response value ([9]; Dose 0.037037 µM): 0.01562 and 0.01516 and 0.01481
CypD prolyl-isomerase assay raw dose-response value ([9]; Dose 0.111111 µM): 0.01259 and 0.0133 and 0.01227
CypD prolyl-isomerase assay raw dose-response value ([9]; Dose 0.333333 µM): 0.01238 and 0.01154 and 0.0111
CypD prolyl-isomerase assay raw dose-response value ([9]; Dose 1 µM): 0.01437 and 0.01145 and 0.01083
Cyp40 prolyl-isomerase assay raw dose-response value ([10]; Dose 0.00457247 µM): 0.06429 and 0.05599 and 0.07223
Cyp40 prolyl-isomerase assay raw dose-response value ([10]; Dose 0.0137174 µM): 0.05813 and 0.05507 and 0.05318
Cyp40 prolyl-isomerase assay raw dose-response value ([10]; Dose 0.0411523 µM): 0.04821 and 0.05825 and 0.0731
Cyp40 prolyl-isomerase assay raw dose-response value ([10]; Dose 0.123457 µM): 0.04592 and 0.05196 and 0.05288
Cyp40 prolyl-isomerase assay raw dose-response value ([10]; Dose 0.37037 µM): 0.03591 and 0.03468 and 0.03748
Cyp40 prolyl-isomerase assay raw dose-response value ([10]; Dose 1.11111 µM): 0.02292 and 0.02127 and 0.02239
Cyp40 prolyl-isomerase assay raw dose-response value ([10]; Dose 3.33333 µM): 0.01681 and 0.01439 and 0.01521
Cyp40 prolyl-isomerase assay raw dose-response value ([10]; Dose 10 µM): 0.01651 and 0.01201 and 0.01273
IC50 [10]: 0.21 µM

NCCCc1ccc(-c2ccc(C[C@@H]3NC(=O)[C@]4(Cc5ccccc5)CCCN(C4)C(=O)/C=C/C(=O)NCC[C@@H](C(=O)NCCOCCN)NC(=O)Cc4ccccc4CNC3=O)cc2)cc1 [Compound B32]
IC50 [1, 11]: 0.8 µM
IC50 [2]: > 50 µM
IC50 ([3]; prolyl-isomerase inhibition, read-out: IC50 CypD R124A): 0.7 µM
IC50 [4]: 1.1 µM
potency improvement on CypD K118E, R124A compared to wild-type CypD ([4]; single mutants K118E, R124A): 5- to 6 fold
IC50 [9]: 6 µM
reduction in potency for CypD on replacing the carboxylate with an amine [9]: 500- to 1,000 fold
IC50 [10]: 4 µM
